Seven molecules from patent EP2845863A1, “Mathanococcus jannaschii protease and its use” (Consejo Superior de Investigaciones Cientificas (CSIC), priority 2013, dated 2015) can be followed below.

Read-outs that look alike come from different tables or passages of the source. Non-standard residues stand in square brackets, D forms with d. Residues, ends and D or L forms follow the SMILES beside them. *: point of attachment. Sta = CC(C)C[C@H](N)[C@@H](O)CC(=O)O; Isovaleryl = CC(C)CC(=O)*

The target of the test is T1, Methanococcus jannaschii selecase, wild type, SEQ ID No: 1 (Methanocaldococcus jannaschii, UniProt Q58610).
T1 sequence (Q58610 1-110): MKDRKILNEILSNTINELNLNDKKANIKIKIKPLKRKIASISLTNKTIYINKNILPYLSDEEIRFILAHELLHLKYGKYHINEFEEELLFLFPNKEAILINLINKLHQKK
The test can be described thus: Inhibition assay with fluorogenic substrate Abz-E-L-A-Y-F-Y-P-E-K(dnp). Type of test: biochemical. As to conditions: for activity at 100 µM: inhibitor 0.1 mM. The procedure:
Proteolytic activities were assayed at 37°C in buffer E (50 mM MES, 150 mM NaCl, pH 5.5), buffer F (50 mM HEPES, 150 mM NaCl, pH 7.5) or buffer G (50 mM CHES, 150 mM NaCl, pH 9.5) at a final protein concentration of 50 µg/ml unless otherwise stated.
For inhibition assays, selecase (at 2 µM in buffer F) was incubated for 30 min with different classes of protease inhibitors and the remaining proteolytic activity was then measured using the fluorogenic substrate Ab[…](dnp) at 37°C. Metal substitution assays were performed by removing the pre-existing metal upon purification through dialysis against 10 mM and 1 mM 1,10-phenanthroline and subsequent dialysis against 1 mM and 10 µM chloride or sulfate salt of a set of divalent metals, similarly as described above to obtain fully active protein. Metals tested were zinc, cobalt, magnesium, manganese, calcium, cadmium, copper, and nickel.

The mark [1] stands for this setting: inhibitor 1 mM, selecase 2 µM in buffer F (50 mM HEPES, 150 mM NaCl, pH 7.5), incubated 30 min with inhibitor, remaining activity at 37°C, no inhibitor = 100, mean of three, SD within ±5, read-out: Relative activity (%).
Setting [2] is: selecase 2 µM in buffer F (50 mM HEPES, 150 mM NaCl, pH 7.5), incubated 30 min with inhibitor, remaining activity at 37°C, no inhibitor = 100, mean of three, SD within ±5, read-out: Relative activity (%).
Where [3] appears, read: inhibitor 1 mM, selecase 2 µM in buffer F (50 mM HEPES, 150 mM NaCl, pH 7.5), incubated 30 min with inhibitor, remaining activity at 37°C, no inhibitor = 100, mean of three, SD within ±5.

`N=C(N)c1ccccc1` [Benzamidine]: the activity at 1000 µM under setting [1] turned out to be 66%. For the molecule `CC(C)C[C@H](NC(=O)[C@H]1O[C@@H]1C(=O)O)C(=O)NCCCCNC(=N)N` [E-64], the activity at 100 µM under setting [2] worked out at 98%.

On to `O=C(O)CN(CCN(CC(=O)O)CC(=O)O)CC(=O)O` [EDTA], for which the activity at 1000 µM (pH 7.5, read-out: Relative activity (%)) was found to be 0%. For the molecule `O=S(=O)(F)Cc1ccccc1` [PMSF], the “Relative activity (%)” value under setting [3] is reported as 82%.

As for `NCCc1ccc(S(=O)(=O)F)cc1` [Pefabloc], the “Relative activity (%)” value under setting [3] turned out to be 78%. In the case of `CC(C)CC(=O)N[C@H](C(=O)N[C@H](C(=O)N[C@@H](CC(C)C)[C@@H](O)CC(=O)N[C@@H](C)C(=O)N[C@@H](CC(C)C)[C@@H](O)CC(=O)O)C(C)C)C(C)C` [Pepstatin A] (Isovaleryl-VV[Sta]A[Sta]-OH), under setting [2], the activity at 100 µM amounted to 75%. Take `NC(=O)CI` [lodoacetamide]: the activity at 1000 µM under setting [1] turned out to be 79%.
